According to US20110306573A1, “NUCLEOSIDE DERIVATIVES AS INHIBITORS OF VIRAL POLYMERASES” (priority 2008, published 2011):
Where a name gives a salt, the structure may show the parent alone.

Tested on: subgenomic HCV Replicon in HuH-7 hepatoma cells
Assay: Assay for inhibition of HCV RNA replication (subgenomic replicon, in situ ribonuclease protection SPA)
Assay type: cell-based, Hepatitis C Virus
Conditions: Hepatitis C virus, Huh-7
Protocol: The compounds of the present invention were also evaluated for their ability to affect the replication of Hepatitis C Virus RNA in cultured hepatoma (HuH-7) cells containing a subgenomic HCV Replicon. The details of the assay are described below. This Replicon assay is a modification of that described in V. Lohmann, F. Korner, J-O. Koch, U. Herian, L. Theilmann, and R. Bartenschlager, “Replication of a Sub-genomic Hepatitis C Virus RNAs in a Hepatoma Cell Line,” Science 285:110 (1999).
The assay was an in situ Ribonuclease protection, Scintillation Proximity based-plate assay (SPA). 10,000-40,000 cells were plated in 100-200 μL of media containing 0.8 mg/mL G418 in 96-well cytostar plates (Amersham). Compounds were added to cells at various concentrations up to 100 μM in 1% DMSO at time 0 to 18 h and then cultured for 24-96 h. Cells were fixed (20 min, 10% formalin), permeabilized (20 min, 0.25% Triton X-100/PBS) and hybridized (overnight, 50° C.) with a single-stranded ^33P RNA probe complementary to the (+) strand NS5B (or other genes) contained in the RNA viral genome. Cells were washed, treated with RNAse, washed, heated to 65° C. and counted in a Top-Count Inhibition of replication was read as a decrease in counts per minute (cpm).
Human HuH-7 hepatoma cells, which were selected to contain a subgenomic replicon, carry a cytoplasmic RNA consisting of an HCV 5′ non-translated region (NTR), a neomycin selectable marker, an EMCV IRES (internal ribosome entry site), and HCV non-structural proteins NS3 through NS5B, followed by the 3′ NTR.

**Q.** With COc1nc(-c2cn([C@@H]3O[C@H](CO)[C@@H](O)[C@@]3(C)O)c3ncnc(N)c23)cs1 [Compound 4, 5-(2-methoxy-1,3-thiazol-4-yl)-7-(2-C-methyl-β-D-ribofuranosyl)-7H-pyrrolo[2,3-d]pyrimidin-4-amine trifluoroacetate] as the compound, how does the EC50 read?
**A.** > 50 µM

**Q.** For CCOC(=O)[C@H](C)NP(=O)(OC[C@H]1O[C@@H](n2cc(-c3ccn[nH]3)c3c(N)ncnc32)[C@](C)(O)[C@@H]1O)Oc1ccccc1 (stereo in doubt) [Compound 29, Ethyl 2-{[(R)-({(2R,3S,4R,5R)-5-[4-amino-5-(1H-pyrazol-5-yl)-7H-pyrrolo[2,3-d]pyrimidin-7-yl]-3,4-dihydroxy-4-methyltetrahydrofuran-2-yl}methoxy)(phenoxy)phosphoryl]amino}propanoate], which EC50 is on record?
**A.** < 20 µM

**Q.** How did the EC50 turn out when Cn1cc(-c2cn([C@@H]3O[C@H](CO)[C@@H](O)[C@@]3(C)O)c3ncnc(N)c23)nn1 [Compound 8, 7-(2-C-methyl-β-D-ribofuranosyl)-5-(1-methyl-1H-1,2,3-triazol-4-yl)-7H-pyrrolo[2,3-d]pyrimidin-4-amine trifluoroacetate] was run?
**A.** 20 to 50 µM

Same assay, conditions: Hepatitis C virus; HuH-7 cells containing a subgenomic HCV Replicon, compounds up to 100 μM in 1% DMSO, cultured 24-96 h; read-out: EC50

**Q.** For C[C@@]1(O)[C@H](O)[C@@H](CO)O[C@H]1n1cc(-c2ccn[nH]2)c2c(N)ncnc21 [Compound 5, 7-(2-C-methyl-β-D-ribofuranosyl)-5-(1H-pyrazol-5-yl)-7H-pyrrolo[2,3-d]pyrimidin-4-amine], which EC50 is on record?
**A.** 20 to 50 µM

**Q.** How did the EC50 turn out when C[C@@]1(F)[C@H](O)[C@@H](CO)O[C@H]1n1cc(-c2ncco2)c2c(N)ncnc21 [Compound 22, 7-(2-deoxy-2-fluoro-2-methyl-β-D-ribofuranosyl)-5-(1,3-oxazol-2-yl)-7H-pyrrolo[2,3-d]pyrimidin-4-amine] was run?
**A.** 20 to 50 µM

**Q.** COc1ccc(-c2cn([C@@H]3O[C@H](CO)[C@@H](O)[C@@]3(C)O)c3ncnc(N)c23)cn1 [Compound 24, 7-(2-C-methyl-β-D-ribofuranosyl)-5-(6-methoxypyridin-3-yl)-7H-pyrrolo[2,3-d]pyrimidin-4-amine] was tested. Which EC50 did it give?
**A.** > 50 µM

**Q.** For C[C@@]1(O)[C@H](O)[C@@H](CO)O[C@H]1n1cc(-c2ncco2)c2c(N)ncnc21 [Compound 2, 7-(2-C-methyl-β-D-ribofuranosyl)-5-(1,3-oxazol-2-yl)-7H-pyrrolo[2,3-d]pyrimidin-4-amine], which EC50 is on record?
**A.** < 20 µM

**Q.** For C[C@@]1(O)[C@H](O)[C@@H](CO)O[C@H]1n1cc(-c2ncon2)c2c(N)ncnc21 [Compound 7, 7-(2-C-methyl-β-D-ribofuranosyl)-5-(1,2,4-oxadiazol-3-yl)-7H-pyrrolo[2,3-d]pyrimidin-4-amine], which EC50 is on record?
**A.** < 20 µM

**Q.** For C[C@@]1(F)[C@H](O)[C@@H](CO)O[C@H]1n1cc(-c2ccn[nH]2)c2c(N)ncnc21 [Compound 21, 7-(2-deoxy-2-fluoro-2-methyl-β-D-ribofuranosyl)-5-(1H-pyrazol-5-yl)-7H-pyrrolo[2,3-d]pyrimidin-4-amine], which EC50 is on record?
**A.** 20 to 50 µM

**Q.** Which EC50 does the source give for C[C@@]1(O)[C@H](O)[C@@H](CO)O[C@H]1n1nc(-c2cc[nH]n2)c2c(N)ncnc21 [Compound 25, 1-(2-C-methyl-β-D-ribofuranosyl)-3-(1H-pyrazol-3-yl)-1H-pyrazolo[3,4-d]pyrimidin-4-amine] here?
**A.** < 20 µM

**Q.** Which EC50 does the source give for C[C@@]1(F)[C@H](O)[C@@H](CO)O[C@H]1n1cc(-c2ncon2)c2c(N)ncnc21 [Compound 23, 7-(2-deoxy-2-fluoro-2-methyl-β-D-ribofuranosyl)-5-(1,2,4-oxadiazol-3-yl)-7H-pyrrolo[2,3-d]pyrimidin-4-amine] here?
**A.** 20 to 50 µM

**Q.** For C[C@@]1(O)[C@H](O)[C@@H](CO)O[C@H]1n1cc(-c2nnco2)c2c(N)ncnc21 [Compound 27, 7-(2-C-methyl-β-D-ribofuranosyl)-5-(1,3,4-oxadiazol-2-yl)-7H-pyrrolo[2,3-d]pyrimidin-4-amine], which EC50 is on record?
**A.** < 20 µM

Same assay, conditions: HuH-7 cells containing a subgenomic HCV Replicon, compounds up to 100 μM in 1% DMSO, cultured 24-96 h; read-out: EC50

**Q.** For “7-(2-C-methyl-β-D-ribofuranosyl)-5-(1-methyl-1H-tetrazol-5-yl)-7H-pyrrolo[2,3-d]pyrimidin-4-amine (A) and 7-(2-C-methyl-β-D-ribofuranosyl)-5-(2-methyl-2H-tetrazol-5-yl)-7H-pyrrolo[2,3-d]pyrimidin-4-amine (B) [Compound 1]”, which EC50 is on record?
**A.** < 20 µM
